Experimental data taken from patent publication US6355799B1, “Substituted benzene compounds, process for their preparation, and herbicidal and defoliant compositions containing them” (ISK Americas Incorporated, priority 1997, dated 2002).

How the values were obtained:
Assay type in all cases: in vivo
[1] = tested on: sicklepod (Cassia obtusifolia, CASOB); experiment: Post-emerge test, greenhouse herbicide activity screening; details: post-emerge, 14 days after application, rating scale 0-100
Source text: (§1) A standard greenhouse herbicide activity screening system was used to evaluate the herbicidal efficacy and crop safety of these test compounds. Seven broadleaf weed species including redroot pigweed (Amaranthus retroflexus, AMARE, velvetleaf (Abutilon theophrasti, ABUTH), sicklepod (Cassia obtusifolia, CASOB), ivyleaf morningglory (Ipomoea hederacea, IPOHE), lambsquarters (Chenopodium album, CHEAL), common ragweed (Ambrosia artemisizfolia L., AMBEL), and cocklebur (Xanthium strumarium, XANST) were used as test species. Four grass weed species including green foxtail (Setaria viridis, SETVI), barnyardgrass (Echinochloa crus-galli, ECHCG), johnsongrass (Sorghum halepense, SORHA), and large crabgrass (Digitaria sanguinalis, DIGSA) were also used. In addition, three crop species, field corn (Zea mays L., var. Dekalb 535, CORN), soybean (Glycine max L., var. Pella 86, SOY), and is upland rice (Oryza sp., var. Tebonnet, RICE) were included.
(§2) All plants were grown in 10 cm square plastic pots which were filled with a sandy loam soil mix. For pre-emerge tests, seeds were planted one day prior to application of the test compounds. For post-emerge tests, seeds were planted 8-21 days prior to the test to allow emergence and good foliage development prior to application of the test substances. At the time of the post-emerge application, plants of all species were usually at the 2-3 leaf stage of development.
(§3) All test compounds Were dissolved in acetone and applied to the test units in a volume of 187 l /ha. Test materials were applied at rates ranging from 15 g ai/ha to 1000 g ai/ha using a track sprayer equipped with a TJ8001E even flow flat fan spray nozzle. Plants were arranged on a shelf so that the top of the canopy (post-emerge) or top of the soil surface (pre-emerge) was 40-45 cm below the nozzle. Pressurized air was used to force the test solution through the nozzle as it was mechanically advanced (via electrically driven chain drive) over the top of all test plants/pots. This application simulates a typical commercial field herbicide application.
(§4) In the post-emerge test, a commercial non-ionic surfactant was also included (0.25% v/v) to enhance wetting of the leaf surfaces of target plants. Immediately after application, test units of the pre-emerge applications were watered at the soil surface to incorporate the test materials. Subsequently, these test units were bottom-watered. Post-emerge test units were always bottom-watered.
(§5) At 14 days after application of the test materials, phytotoxicity ratings were recorded. A rating scale of 0-100 was used as previously described in Research Methods in Weed Science, 2nd edition, B. Truelove, Ed., Southern Weed Science Society, Auburn University, Auburn, Ala. 1977. Briefly, “0” corresponds to no damage and “100” corresponds to complete death of all plants in the test unit. This scale was used both to determine efficacy against weed species and damage to crop species. Herbicide activity data for various compounds of this invention, which are shown by compound No. in Tables 1-8, are shown in Tables 11 and 12.

[2] = tested on: redroot pigweed (Amaranthus retroflexus, AMARE); experiment: as above; details: post-emerge, 14 days after application, rating scale 0-100
Source text: as §1, §2, §3, §4, §5

[3] = tested on: lambsquarters (Chenopodium album, CHEAL); experiment: as above; details: post-emerge, 14 days after application, rating scale 0-100
Source text: as §1, §2, §3, §4, §5

[4] = tested on: velvetleaf (Abutilon theophrasti, ABUTH); experiment: as above; details: post-emerge, 14 days after application, rating scale 0-100
Source text: as §1, §2, §3, §4, §5

[5] = tested on: ivyleaf morningglory (Ipomoea hederacea, IPOHE); experiment: as above; details: post-emerge, 14 days after application, rating scale 0-100
Source text: as §1, §2, §3, §4, §5

[6] = tested on: green foxtail (Setaria viridis, SETVI); experiment: as above; details: post-emerge, 14 days after application, rating scale 0-100
Source text: as §1, §2, §3, §4, §5

[7] = tested on: large crabgrass (Digitaria sanguinalis, DIGSA); experiment: as above; details: post-emerge, 14 days after application, rating scale 0-100
Source text: as §1, §2, §3, §4, §5

[8] = tested on: barnyardgrass (Echinochloa crus-galli, ECHCG); experiment: as above; details: post-emerge, 14 days after application, rating scale 0-100
Source text: as §1, §2, §3, §4, §5

[9] = tested on: upland rice (Oryza sp., var. Tebonnet, RICE); experiment: Post-emerge test, crop safety; details: post-emerge, 14 days after application, rating scale 0-100
Source text: as §1, §2, §3, §4, §5

[10] = tested on: field corn (Zea mays L., var. Dekalb 535, CORN); experiment: Post-emerge test, crop safety; details: post-emerge, 14 days after application, rating scale 0-100
Source text: as §1, §2, §3, §4, §5

[11] = tested on: sicklepod (Cassia obtusifolia, CASOB); experiment: Pre-emerge test, greenhouse herbicide activity screening; details: pre-emerge, 14 days after application, scale 0-100
Source text: as §1, §2, §3, §4, §5

[12] = tested on: lambsquarters (Chenopodium album, CHEAL); experiment: as above; details: pre-emerge, 14 days after application, scale 0-100
Source text: as §1, §2, §3, §4, §5

[13] = tested on: velvetleaf (Abutilon theophrasti, ABUTH); experiment: as above; details: pre-emerge, 14 days after application, scale 0-100
Source text: as §1, §2, §3, §4, §5

[14] = tested on: ivyleaf morningglory (Ipomoea hederacea, IPOHE); experiment: as above; details: pre-emerge, 14 days after application, scale 0-100
Source text: as §1, §2, §3, §4, §5

[15] = tested on: green foxtail (Setaria viridis, SETVI); experiment: as above; details: pre-emerge, 14 days after application, scale 0-100
Source text: as §1, §2, §3, §4, §5

[16] = tested on: large crabgrass (Digitaria sanguinalis, DIGSA); experiment: as above; details: pre-emerge, 14 days after application, scale 0-100
Source text: as §1, §2, §3, §4, §5

[17] = tested on: barnyardgrass (Echinochloa crus-galli, ECHCG); experiment: as above; details: pre-emerge, 14 days after application, scale 0-100
Source text: as §1, §2, §3, §4, §5

[18] = tested on: redroot pigweed (Amaranthus retroflexus, AMARE); experiment: as above; details: pre-emerge, 14 days after application, scale 0-100
Source text: as §1, §2
as §3, with “Test materials were applied at rates ranging from 15 g ai/ha to 1000 g ai/ha using a track sprayer equipped with a TJ8001E even flow flat fan spray nozzle.” left out
as §4, §5

[19] = tested on: upland rice (Oryza sp., var. Tebonnet, RICE); experiment: Pre-emerge test, crop safety; details: pre-emerge, 14 days after application, scale 0-100
Source text: as §1, §2, §3, §4, §5

[20] = tested on: field corn (Zea mays L., var. Dekalb 535, CORN); experiment: Pre-emerge test, crop safety; details: pre-emerge, 14 days after application, scale 0-100
Source text: as §1, §2, §3, §4, §5

Row | SMILES | CASOB phytotoxicity rating ([1]; 63 g ai/ha) | CASOB phytotoxicity rating ([1]; 250 g ai/ha) | AMARE phytotoxicity rating ([2]; 63 g ai/ha) | AMARE phytotoxicity rating ([2]; 250 g ai/ha) | CHEAL phytotoxicity rating ([3]; 63 g ai/ha) | CHEAL phytotoxicity rating ([3]; 250 g ai/ha) | ABUTH phytotoxicity rating ([4]; 63 g ai/ha) | ABUTH phytotoxicity rating ([4]; 250 g ai/ha) | IPOHE phytotoxicity rating ([5]; 63 g ai/ha) | IPOHE phytotoxicity rating ([5]; 250 g ai/ha) | SETVI phytotoxicity rating ([6]; 63 g ai/ha) | SETVI phytotoxicity rating ([6]; 250 g ai/ha) | DIGSA phytotoxicity rating ([7]; 63 g ai/ha) | DIGSA phytotoxicity rating ([7]; 250 g ai/ha) | ECHCG phytotoxicity rating ([8]; 63 g ai/ha) | ECHCG phytotoxicity rating ([8]; 250 g ai/ha) | RICE phytotoxicity rating (crop damage) ([9]; 63 g ai/ha) | RICE phytotoxicity rating (crop damage) ([9]; 250 g ai/ha) | CORN phytotoxicity rating (crop damage) ([10]; 63 g ai/ha) | CORN phytotoxicity rating (crop damage) ([10]; 250 g ai/ha) | also measured
1 | COc1c(Cl)cc(F)c(-n2c(=O)cc(C(F)(F)F)n(C)c2=O)c1NC(=O)CCc1ccccc1C [2-129] | 80 | 100 | 100 | 100 | 100 | 100 | 100 | 100 | 100 | 100 | 80 | 90 | 30 | 70 | 30 | 50 | 35 | 75 | 70 | 100 | phytotoxicity rating CASOB ([11]; 63 g ai/ha): 60; phytotoxicity rating CASOB ([11]; 250 g ai/ha): 90; phytotoxicity rating CHEAL ([12]; 63 g ai/ha): 100; phytotoxicity rating CHEAL ([12]; 250 g ai/ha): 100; phytotoxicity rating ABUTH ([13]; 63 g ai/ha): 100; phytotoxicity rating ABUTH ([13]; 250 g ai/ha): 100; phytotoxicity rating IPOHE ([14]; 63 g ai/ha): 50; phytotoxicity rating IPOHE ([14]; 250 g ai/ha): 70; phytotoxicity rating SETVI ([15]; 63 g ai/ha): 90; phytotoxicity rating SETVI ([15]; 250 g ai/ha): 100; phytotoxicity rating DIGSA ([16]; 63 g ai/ha): 60; phytotoxicity rating DIGSA ([16]; 250 g ai/ha): 100; phytotoxicity rating ECHCG ([17]; 63 g ai/ha): 30; phytotoxicity rating ECHCG ([17]; 250 g ai/ha): 80; phytotoxicity rating AMARE ([18]; 63 g ai/ha): 90; phytotoxicity rating AMARE ([18]; 250 g ai/ha): 100; phytotoxicity rating RICE (crop damage) ([19]; 63 g ai/ha): 40; phytotoxicity rating RICE (crop damage) ([19]; 250 g ai/ha): 80; phytotoxicity rating CORN (crop damage) ([20]; 63 g ai/ha): 50; phytotoxicity rating CORN (crop damage) ([20]; 250 g ai/ha): 90
2 | COc1c(Cl)cc(F)c(-n2c(=O)cc(C(F)(F)F)n(C)c2=O)c1NC(=O)CCc1cc(C)ccc1C [2-130] | 80 | 70 | 100 | 100 | 100 | 100 | 100 | 100 | 100 | 100 | 60 | 70 | 30 | 50 | 50 | 60 | 20 | 25 | 10 | 30 | phytotoxicity rating CASOB ([11]; 63 g ai/ha): 0; phytotoxicity rating CASOB ([11]; 250 g ai/ha): 40; phytotoxicity rating CHEAL ([12]; 63 g ai/ha): 60; phytotoxicity rating CHEAL ([12]; 250 g ai/ha): 100; phytotoxicity rating ABUTH ([13]; 63 g ai/ha): 100; phytotoxicity rating ABUTH ([13]; 250 g ai/ha): 100; phytotoxicity rating IPOHE ([14]; 63 g ai/ha): 0; phytotoxicity rating IPOHE ([14]; 250 g ai/ha): 30; phytotoxicity rating SETVI ([15]; 63 g ai/ha): 50; phytotoxicity rating SETVI ([15]; 250 g ai/ha): 100; phytotoxicity rating DIGSA ([16]; 63 g ai/ha): 20; phytotoxicity rating DIGSA ([16]; 250 g ai/ha): 90; phytotoxicity rating ECHCG ([17]; 63 g ai/ha): 0; phytotoxicity rating ECHCG ([17]; 250 g ai/ha): 30; phytotoxicity rating AMARE ([18]; 63 g ai/ha): 40; phytotoxicity rating AMARE ([18]; 250 g ai/ha): 100; phytotoxicity rating RICE (crop damage) ([19]; 63 g ai/ha): 0; phytotoxicity rating RICE (crop damage) ([19]; 250 g ai/ha): 15; phytotoxicity rating CORN (crop damage) ([20]; 63 g ai/ha): 0; phytotoxicity rating CORN (crop damage) ([20]; 250 g ai/ha): 5
